The target of one assay is T1, Heme oxygenase 1 (Rattus norvegicus, UniProt P06762).
T1 sequence (P06762 whole entry): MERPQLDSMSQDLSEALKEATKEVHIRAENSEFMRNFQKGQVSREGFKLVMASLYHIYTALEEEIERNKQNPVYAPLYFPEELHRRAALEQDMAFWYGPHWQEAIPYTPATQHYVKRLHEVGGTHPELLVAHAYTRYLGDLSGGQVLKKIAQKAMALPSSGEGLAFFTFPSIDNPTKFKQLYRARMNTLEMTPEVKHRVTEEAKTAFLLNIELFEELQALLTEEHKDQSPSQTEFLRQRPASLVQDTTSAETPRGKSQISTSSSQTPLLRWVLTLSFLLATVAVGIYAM
The experiment in a line: Heme Oxygenase. The following applies: pH 7.4; 25 °C. As for the experimental part:
(§1) Heme oxygenase activity in rat spleen and brain microsomal fractions was determined by the quantitation of CO formed from the degradation of methemalbumin (heme complexed with albumin). Spleen and brain (SpragueâDawley rats) microsomal fractions were prepared according to the procedure outlined by Appletonet al. Protein concentration of microsomal fractions was determined by a modification of the Biuret method. Incubations for HO activity analysis were performed under conditions for which the rate of CO formation [pmol CO â (min mg protein)] was linear with respect to time and microsomal protein concentration. […] […]

In another assay the target is T2, Heme oxygenase 2 (Rattus norvegicus, UniProt P23711).
T2 sequence (P23711 whole entry): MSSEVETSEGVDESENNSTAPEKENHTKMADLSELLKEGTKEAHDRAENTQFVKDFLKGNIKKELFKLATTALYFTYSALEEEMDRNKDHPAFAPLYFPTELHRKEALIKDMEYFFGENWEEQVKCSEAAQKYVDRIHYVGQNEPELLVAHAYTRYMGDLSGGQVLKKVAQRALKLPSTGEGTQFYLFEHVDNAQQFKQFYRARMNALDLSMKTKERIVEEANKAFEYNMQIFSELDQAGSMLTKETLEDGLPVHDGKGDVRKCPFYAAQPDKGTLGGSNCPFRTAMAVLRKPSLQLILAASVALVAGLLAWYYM
As to the kind of experiment: Heme Oxygenase. The following applies: pH 7.4; 25 °C. On the procedure:
as §1

pIC50: −log10 of the molar value. Several values for one entry are separate records, joined by “and”; a condition that tells them apart may be missing. Equal entries are not always repeated. Bounds are passed on as bounds.

Usually pIC50 stands for the IC50 on a negative log10 scale, so that one unit is a factor of ten. In the case of `OC(CCc1ccccc1)Cn1ccnc1` (stereo not drawn), at Heme oxygenase 1, the pIC50 is 5.22.

With `O=C(CCc1ccccc1)Cn1cccn1` [1-azolyl-4-phenyl-2-butanone, 5], the pIC50 on Heme oxygenase 1 and against Heme oxygenase 2 was below 4.00 throughout.

Consider `O=C(CCc1ccccc1)Cn1ccnn1` [1-azolyl-4-phenyl-2-butanone, 8], for which the negative-log IC50 (pIC50) against Heme oxygenase 1 is 4.05; against Heme oxygenase 2, below 4.00.

In the case of `O=C(CCc1ccccc1)Cn1nccn1` [1-azolyl-4-phenyl-2-butanone, 9], the pIC50 against Heme oxygenase 1 and against Heme oxygenase 2 was below 4.00 throughout.

Take `O=C(CCc1ccccc1)Cn1ncnn1` [1-azolyl-4-phenyl-2-butanone, 11]: the pIC50 on Heme oxygenase 2 is 4.52 and < 4.00.

Take `O=C(CCc1ccccc1)Cn1nc2ccccc2n1` [1-azolyl-4-phenyl-2-butanone, 14]: the negative-log IC50 (pIC50) against Heme oxygenase 1 and against Heme oxygenase 2 was below 4.00 each time.

For `Cc1nccn1CC(=O)CCc1ccccc1` [1-azolyl-4-phenyl-2-butanone, 15], the pIC50 against Heme oxygenase 1 and against Heme oxygenase 2 was below 4.00 in each case.

Consider `O=C(CCc1ccccc1)Cn1ccnc1-c1ccccc1` [1-azolyl-4-phenyl-2-butanone, 16], for which the pIC50 against Heme oxygenase 1 and against Heme oxygenase 2 was below 4.00 each time.

For `O=C(CCc1ccccc1)Cn1cnc(Cl)c1Cl` [1-azolyl-4-phenyl-2-butanone, 20], the negative logarithm of the IC50 (pIC50) against Heme oxygenase 1 and against Heme oxygenase 2 was below 4.00 each time.

In the case of `O=C(CCc1ccccc1)Cn1cnc(-c2ccccc2)c1-c1ccccc1` [1-azolyl-4-phenyl-2-butanone, 21], the pIC50 at Heme oxygenase 2 is below 4.00.

In the case of `O=C(CCc1ccccc1)Cn1cnc(-c2ccccc2)c1` [1-azolyl-4-phenyl-2-butanone, 24], on Heme oxygenase 2, the pIC50 is below 4.00.

In the case of `O=C(CCc1ccccc1)Cn1cnc(Br)c1` [1-azolyl-4-phenyl-2-butanone, 25], the pIC50 against Heme oxygenase 1 and at Heme oxygenase 2 was below 4.00 throughout.

For the molecule `O=C(CCc1ccccc1)Cn1cnc(N(O)O)c1` [1-azolyl-4-phenyl-2-butanone, 26], the pIC50 against Heme oxygenase 1 and against Heme oxygenase 2 was below 4.00 in each case.

`CSc1ncn(CC(=O)CCc2ccccc2)n1` [1-azolyl-4-phenyl-2-butanone, 31]: the pIC50 on Heme oxygenase 1 and on Heme oxygenase 2 was below 4.00 throughout.

Take `O=C(CCc1ccccc1)Cn1cnc(N(O)O)n1` [1-azolyl-4-phenyl-2-butanone, 32]: the pIC50 on Heme oxygenase 1 and against Heme oxygenase 2 was below 4.00 in each case.

As to `CSc1ncnn1CC(=O)CCc1ccccc1` [1-azolyl-4-phenyl-2-butanone, 35], the negative-log IC50 (pIC50) at Heme oxygenase 1 and against Heme oxygenase 2 was below 4.00 throughout.

Regarding `O=C(CCc1ccccc1)Cn1nc(Br)nc1Br` [1-azolyl-4-phenyl-2-butanone, 36], the negative-log IC50 (pIC50) against Heme oxygenase 1 and at Heme oxygenase 2 was below 4.00 each time.

`CSc1nnnn1CC(=O)CCc1ccccc1` [1-azolyl-4-phenyl-2-butanone, 38]: the pIC50 on Heme oxygenase 1 and against Heme oxygenase 2 was below 4.00 in each case.

As to `O=C(CCc1ccccc1)Cn1nnnc1-c1ccccc1` [1-azolyl-4-phenyl-2-butanone, 40], the negative-log IC50 (pIC50) at Heme oxygenase 1 and against Heme oxygenase 2 was below 4.00 each time.

For `CSc1nnn(CC(=O)CCc2ccccc2)n1` [1-azolyl-4-phenyl-2-butanone, 41], the negative logarithm of the IC50 (pIC50) at Heme oxygenase 1 and on Heme oxygenase 2 was below 4.00 throughout.

Turning to `COOSc1ncnn1CC(=O)CCc1ccccc1` [1-azolyl-4-phenyl-2-butanone, 46], the negative-log IC50 (pIC50) against Heme oxygenase 1 and at Heme oxygenase 2 was below 4.00 throughout.

Values taken from BindingDB's records for doi:10.1111/j.1747-0285.2009.00909.x (Queen's University, 2010).
